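All cell lines were grown in 96-well plates and treated with compound for 48 hours. At the GI50, growth is halved.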 Calls of active or inactive are those of the source. Rule as the data show it: active = GI50 up to about 1.1 µM and inactive = higher.
How the values were obtained:
Assay in all cases: NCI tumour cell line growth inhibition, 48 h
[1] = system: HOP-92
[2] = system: MOLT-4
[3] = system: SNB-75
[4] = system: A498
[5] = system: LOX IMVI
[6] = system: MCF7
[7] = system: NCI-H226
[8] = system: 786-0
[9] = system: NCI/ADR-RES
[10] = system: M14
[11] = system: SF-539
[12] = system: SK-MEL-28
[13] = system: NCI-H23
[14] = system: IGROV-1
[15] = system: CCRF-CEM
[16] = system: COLO 205
[17] = system: DU-145
[18] = system: UO-31
[19] = system: HCC 2998

| SMILES | GI50 [1] | GI50 [2] | GI50 [3] | GI50 [4] | GI50 [5] | GI50 [6] | GI50 [7] | GI50 [8] | GI50 [9] | GI50 [10] | GI50 [11] | GI50 [12] | GI50 [13] | GI50 [14] | GI50 [15] | GI50 [16] | GI50 [17] | GI50 [18] | GI50 [19] |
| --- | --- | --- | --- | --- | --- | --- | --- | --- | --- | --- | --- | --- | --- | --- | --- | --- | --- | --- | --- |
| O=[N+]([O-])c1cccc(/C=N/NC2=CS(=O)(=O)C=C2)c1 | > 100 µM (inactive) | > 100 µM (inactive) | 91 µM (inactive) | > 100 µM (inactive) | > 100 µM (inactive) | > 100 µM (inactive) | > 100 µM (inactive) | > 100 µM (inactive) | > 100 µM (inactive) | > 100 µM (inactive) | > 100 µM (inactive) | > 100 µM (inactive) | > 100 µM (inactive) | > 100 µM (inactive) | > 100 µM (inactive) | > 100 µM (inactive) | > 100 µM (inactive) | > 100 µM (inactive) |  |
| Cc1c(-c2ccc(O)cc2)n(CCCCCCNCCOC(=O)NCCCc2ccc(N(CCCl)CCCl)cc2)c2ccc(O)cc12 |  | 1.17 µM (inactive) | 1.98 µM (inactive) | 14.9 µM (inactive) | 1.5 µM (inactive) | 0.766 µM (active) |  | 1.59 µM (inactive) |  | 1.59 µM (inactive) | 1.64 µM (inactive) | 4.21 µM (inactive) | 1.78 µM (inactive) | 2.07 µM (inactive) | 1.67 µM (inactive) | 2.64 µM (inactive) | 1.83 µM (inactive) |  | 1.86 µM (inactive) |
| Cc1ccc(O)c(C2=CC(c3cccc(Br)c3)SC(=N)N2)c1 (centres undefined) | 19 µM (inactive) | 18.9 µM (inactive) | 19.5 µM (inactive) |  | 18.5 µM (inactive) | 23.3 µM (inactive) | 26.9 µM (inactive) | 23.7 µM (inactive) | 27.9 µM (inactive) | 24.3 µM (inactive) | 22.4 µM (inactive) |  | 25.6 µM (inactive) | 18.8 µM (inactive) | 25.6 µM (inactive) | 17.5 µM (inactive) | 34.5 µM (inactive) | 25 µM (inactive) |  |
| CC(C)=CCc1cc(/C=C/C(=O)O)cc(CC=C(C)C)c1O [ARTEPILLIN] | 19.7 µM (inactive) | > 100 µM (inactive) |  | > 100 µM (inactive) | 43.7 µM (inactive) | > 100 µM (inactive) |  | > 100 µM (inactive) | > 100 µM (inactive) | > 100 µM (inactive) | > 100 µM (inactive) |  | > 100 µM (inactive) | 73.5 µM (inactive) | > 100 µM (inactive) | > 100 µM (inactive) | > 100 µM (inactive) | 87.5 µM (inactive) |  |
| O=C(O)c1cc2ccccc2c(/N=N/c2ccccc2)c1O | 55.3 µM (inactive) | 92.7 µM (inactive) | 19.8 µM (inactive) | 33.7 µM (inactive) |  |  |  | 33.5 µM (inactive) | 27.2 µM (inactive) | 14.9 µM (inactive) |  | 29.8 µM (inactive) | 16.7 µM (inactive) | 34.1 µM (inactive) | 38.5 µM (inactive) | 17.9 µM (inactive) | 14.5 µM (inactive) | 31.2 µM (inactive) |  |
| COc1ccc2c(ccc3c(COC(=O)NC(C)C)c(COC(=O)NC(C)C)n(C)c32)c1 | 11.2 µM (inactive) | 3.34 µM (inactive) | 4.6 µM (inactive) | 7.33 µM (inactive) | 4.62 µM (inactive) | 4.75 µM (inactive) | 3.08 µM (inactive) | 3.26 µM (inactive) | 5.01 µM (inactive) | 9.06 µM (inactive) | 5.82 µM (inactive) |  | 3.5 µM (inactive) | 4.13 µM (inactive) | 3.21 µM (inactive) | 10.8 µM (inactive) |  | 5.98 µM (inactive) |  |
| O=C(NCc1ccc(Cl)cc1)c1cc2sccc2nc1C(F)(F)F | 37.7 µM (inactive) | > 100 µM (inactive) |  |  |  | 61 µM (inactive) | 19.6 µM (inactive) | 18.2 µM (inactive) | 39.1 µM (inactive) | > 100 µM (inactive) | 27.7 µM (inactive) | 55.7 µM (inactive) | 45.5 µM (inactive) | 29.6 µM (inactive) | > 100 µM (inactive) | > 100 µM (inactive) |  | 30.5 µM (inactive) |  |
| CC1(C)O[C@@H](CCl)C[C@@H](C#N)O1 | > 100 µM (inactive) | > 100 µM (inactive) | > 100 µM (inactive) | > 100 µM (inactive) | > 100 µM (inactive) |  | > 100 µM (inactive) | > 100 µM (inactive) |  | > 100 µM (inactive) | > 100 µM (inactive) | > 100 µM (inactive) | > 100 µM (inactive) | > 100 µM (inactive) | > 100 µM (inactive) | > 100 µM (inactive) |  | > 100 µM (inactive) | > 100 µM (inactive) |
| CC12CC3c4ccccc4CN1C3(c1ccccc1)OC2=O (centres undefined) |  | > 100 µM (inactive) | > 100 µM (inactive) | > 100 µM (inactive) | > 100 µM (inactive) |  | > 100 µM (inactive) | > 100 µM (inactive) | > 100 µM (inactive) | > 100 µM (inactive) | > 100 µM (inactive) | > 100 µM (inactive) | > 100 µM (inactive) | > 100 µM (inactive) | > 100 µM (inactive) | > 100 µM (inactive) | > 100 µM (inactive) | > 100 µM (inactive) |  |
| CN1CCN([C@H]2C[C@H]3[C@@H]4CC=C5C[C@@H](N6CCCC6)CC[C@]5(C)[C@H]4CC[C@]3(C)[C@H]2O)CC1 | 84.9 µM (inactive) | 23.7 µM (inactive) | > 100 µM (inactive) | 46.1 µM (inactive) | 19.6 µM (inactive) | > 100 µM (inactive) | > 100 µM (inactive) | 38.4 µM (inactive) | > 100 µM (inactive) | 15.6 µM (inactive) | 16.2 µM (inactive) | 20.6 µM (inactive) | > 100 µM (inactive) | 67.8 µM (inactive) | 38.6 µM (inactive) | 12.6 µM (inactive) |  | 94.4 µM (inactive) | 33.3 µM (inactive) |
| CCOC(=O)CCC(C(=O)OCC)n1nnc2ccc(Nc3c(C)[n+]([O-])c4cc(Cl)ccc4[n+]3[O-])cc21 (centres undefined) | 16 µM (inactive) | 38.2 µM (inactive) | 44.7 µM (inactive) |  | 17.7 µM (inactive) | 17.9 µM (inactive) | 26.5 µM (inactive) | 45.4 µM (inactive) | 31.8 µM (inactive) | 19 µM (inactive) | 19.9 µM (inactive) |  | 24.8 µM (inactive) | 27.7 µM (inactive) | 29.1 µM (inactive) | 19.3 µM (inactive) | 30.4 µM (inactive) | 34.8 µM (inactive) | 16.8 µM (inactive) |
| CC(CCCCNC(=O)OC(C)(C)C)NC(=O)NC(C)CCCCNC(=O)OC(C)(C)C (centres undefined) | > 100 µM (inactive) | 41.8 µM (inactive) | > 100 µM (inactive) | > 100 µM (inactive) | > 100 µM (inactive) | 95.3 µM (inactive) | 54 µM (inactive) | > 100 µM (inactive) | > 100 µM (inactive) | > 100 µM (inactive) |  | > 100 µM (inactive) | > 100 µM (inactive) | > 100 µM (inactive) | 6.21 µM (inactive) | 56.6 µM (inactive) | > 100 µM (inactive) | > 100 µM (inactive) |  |
| CCSC1=N/C(=C\c2ccco2)C(Nc2ccc(C)cc2)=N1 | > 100 µM (inactive) | > 100 µM (inactive) | > 100 µM (inactive) | > 100 µM (inactive) | > 100 µM (inactive) | > 100 µM (inactive) | > 100 µM (inactive) | > 100 µM (inactive) | > 100 µM (inactive) | > 100 µM (inactive) |  | > 100 µM (inactive) | > 100 µM (inactive) | 60.5 µM (inactive) | > 100 µM (inactive) | > 100 µM (inactive) | > 100 µM (inactive) | > 100 µM (inactive) |  |
| C[C@@H](c1ccccc1)N(CC#N)C1CCC[C@H]1O (some centres undefined) | > 100 µM (inactive) | > 100 µM (inactive) | > 100 µM (inactive) | > 100 µM (inactive) | > 100 µM (inactive) |  | > 100 µM (inactive) | > 100 µM (inactive) |  | > 100 µM (inactive) | > 100 µM (inactive) | > 100 µM (inactive) | > 100 µM (inactive) | > 100 µM (inactive) | > 100 µM (inactive) | > 100 µM (inactive) |  | > 100 µM (inactive) | > 100 µM (inactive) |
| C[C@@]12CCCC(=O)N1[C@@H](CO)C(c1ccccc1)O2 (some centres undefined) | > 100 µM (inactive) |  | > 100 µM (inactive) | > 100 µM (inactive) | > 100 µM (inactive) |  |  | > 100 µM (inactive) |  |  | > 100 µM (inactive) | > 100 µM (inactive) | > 100 µM (inactive) | > 100 µM (inactive) |  | > 100 µM (inactive) |  |  |  |
| Cc1nc(C)c(C(=O)NNC(N)=S)cc1C(=O)NNC(N)=S | > 100 µM (inactive) | > 100 µM (inactive) |  |  | > 100 µM (inactive) | > 100 µM (inactive) | > 100 µM (inactive) | > 100 µM (inactive) | > 100 µM (inactive) | > 100 µM (inactive) | > 100 µM (inactive) | > 100 µM (inactive) | > 100 µM (inactive) | > 100 µM (inactive) |  | > 100 µM (inactive) | > 100 µM (inactive) | > 100 µM (inactive) | > 100 µM (inactive) |
| COc1cc([C@@H]2c3cc4c(cc3[C@@H](NCCNCCO)[C@H]3COC(=O)[C@H]23)OCO4)cc(OC)c1O |  | 0.0267 µM (active) | 1.19 µM (inactive) | 3.85 µM (inactive) |  |  | 1.37 µM (inactive) | 0.762 µM (active) | > 99.5 µM (inactive) | 3.48 µM (inactive) |  | 2.67 µM (inactive) | 1.08 µM (active) | 1.3 µM (inactive) | 0.0861 µM (active) | 2.42 µM (inactive) |  | 15.4 µM (inactive) |  |

— ChEMBL document CHEMBL1201862, “PubChem BioAssay data set” (2004)
